Results reported in patent US20240390371A1, “HETEROARYL AND HETEROCYCLIC COMPOUNDS FOR TREATING ACUTE INFLAMMATION” (TES Pharma S.r.l., priority 2023, published 2024).

Key:
Kupffer cells [1] = test: Gene expression in Kupffer cells after LPS-induced inflammation; type: cell-based, mouse; details: compound 10 μM
Protocol: […] stimulated with LPS overnight […] (1 mg/mL stock solution in H2O, dispensed at 50 ng/mL in the well) final concentration. Cells treated with DMSO were used as control at the final concentration of 0.5% in medium. All the wells were normalized with DMSO at 0.5% final concentration. The supernatant was collected to measure cytokine secretion using a Bio-Plex Pro mouse cytokine 23-plex assay system (cat #M60009RDPD) using a Bio-Plex Instrument. The cells were washed once with PBS, and then lysed to extract total RNA for performing RT-PCR to evaluate ACMSD modulation of IL-10, SIRT1, and STAT3 gene expression.
Briefly, total RNA was extracted from the cells using the manufacturer's protocol for Qiagen RNeasy Plus Mini Kit (cat. 74134). The total RNA concentration was quantified using an Implen Instrument, and the purity was evaluated by measuring the ratio of A260/A280.
Total RNA (1 μg) was reverse transcribed using the manufacturer's protocol for SuperScript IV VILO Master Mix (ThermoFisher cat. #. 11756500). Real-time PCR was then performed in CFX 96 Real Time System (Bio-Rad) as follows: denaturation at 95° C. for 2 minutes, followed by 40 cycles at 95° C. for 10 s, and hybridization at 60° C. for 20 s. QPCR was performed using the 2× QuantiNova SYBR Green PCR Master Mix (Qiagen). Mouse β2 microglobulin (m β2M) was used as a reference gene.
Following inflammation induced by LPS (Kupffer cells treated with LPS 50 ng/mL […] incubation time) ACMSD inhibition, with compound I-34, reverses the changes in the expression of inflammatory modulators. Expression of pro-inflammatory genes is reduced (TNF-α, IL-6, and iNOS) and that of anti-inflammatory genes is increased (Arg-1, IL-10, and MRC2) by ACMSD inhibition.

HK-2 cells [2] = test: Gene expression in HK-2 cells after LPS stimulus; type: cell-based
Protocol: ((N=3) One way Anova: Dunnett's test: **p<0.01 vs pathological control.)
ACMSD inhibition, with compound I-34, decreased inflammatory gene expression (IL-6 and TNF-α) in HK-2 cells following an 18 h stimulus with 30 μg/ml of LPS.

Kupffer cells [3] = test: Cytokine secretion in Kupffer cells exposed to LPS; type: cell-based, mouse; details: LPS 24 h, compound 1 μM
Source text: […] Cells treated with DMSO were used as control at the final concentration of 0.5% in medium. All the wells were normalized with DMSO at 0.5% final concentration. The supernatant was collected to measure cytokine secretion using a Bio-Plex Pro mouse cytokine 23-plex assay system (cat #M60009RDPD) using a Bio-Plex Instrument. The cells were washed once with PBS, and then lysed to extract total RNA for performing RT-PCR to evaluate ACMSD modulation of IL-10, SIRT1, and STAT3 gene expression.
All cytokine secretion values were normalized to the luminescent signal relative to the measuring of the cellular ATP (CellTiter-Glo cat #G7571)).
(§1) (One way Anova: Dunnett's test: **p<0.01, ***p<0.001; vs pathological control.)

HK-2 cells [4] = test: Fibrotic gene expression in HK-2 cells after TGFβ insult; type: cell-based; details: pre-treatment, TGFβ insult at 10 ng/mL
Source text: (§2) ((N=3) One way Anova: Dunnett's test: **p<0.01, ***p<0.001; vs pathological control.)

[5] = tested on: mouse primary hepatocytes and murine stellate cells; test: Gene expression in co-cultured mouse primary hepatocytes and murine stellate cells exposed to free fatty acids; type: cell-based; details: co-culture exposed to free fatty acids (MIX)
Source text: Mouse primary hepatocytes and murine stellate cells were co-cultured with FFA to induce fibrosis as observed in NASH patients.
as §1

[6] = tested on: 3D human liver microtissues; test: Cytokine expression and secretion in 3D human liver microtissues (organoids); type: cell-based; details: free fatty acids mix and LPS 10 μg/mL, compound 10 and 50 μM, dose-response manner
Protocol: 3D InSight™ Human Liver Microtissues (organoids) composed of multi-donor primary human hepatocytes in co-culture with Non-Parenchymal Cells (NPC), containing primary human Kupffer cells and primary Liver Endothelial Cells (LEC) were provided by Insphero, Switzerland. These human liver organoids to evaluate the anti-inflammatory effect of ACMSD inhibition.
The organoids were treated with free fatty acids (palmitic acid and oleic acid according to manufacturer's instructions) and lipopolisaccaride (LPS) in a diabetic medium (Insphero) at the concentration of 10 μg/mL to induce lipid accumulation in hepatocytes and pro-inflammatory cytokine secretion including; TNF-α, IL-6, IL-8, MCP-1, and MIP1α. Vehicle control solution was prepared as negative control. DMSO was maintained constant concentration of 0.1% total solution.
Two concentrations of compound I-34 (10 μM and 50 μM) were used and added together with the NASH stimuli mix. Cytokine secretion was measured in cell medium at day 4 following treatment using the Bio-Plex Pro Human Cytokine Screening Panel (Bio-Rad) according to manufacturer's instructions.
3D human liver microtissues were treated with vehicle (DMSO), a mix of free fatty acids and LPS (10 μg/mL) and mix together with two concentrations of compound I-34 (10 and 50 μM). […]

[7] = tested on: HK-2 proximal tubule cells; test: Cisplatin-induced apoptosis (Caspases 3/7 activity) in HK-2 cells; type: cell-based; details: Cisplatin 50 μM; compound 10, 50 and 100 μM added 1 hr before Cisplatin injury
Source text: as §2

[8] = 18 h stimulus with 30 μg/ml LPS, compound 100 μM

## N#Cc1c(Cc2ccccc2)nc(SCc2cccc(-c3nnn[nH]3)c2)[nH]c1=O [Compound I-34, 4-Benzyl-6-oxo-2-[3-(1H-tetrazol-5-yl)-benzylsulfanyl]-1,6-dihydro-pyrimidine-5 carbonitrile]
Kupffer cells [1]; LPS 50 ng/mL
  Expression of anti-inflammatory genes (Arg-1, IL-10, and MRC2): increased
  Expression of pro-inflammatory genes (TNF-α, IL-6, and iNOS): reduced
Kupffer cells [1]; LPS
  QPRT expression: reversed LPS-induced reduction of QPRT expression
HK-2 cells [2]; [8]
  ACMSD expression: does not significantly affect
  Inflammatory gene expression (IL-6 and TNF-α): decreased
HK-2 cells [2]; 18 h stimulus with 30 μg/ml LPS, several concentrations
  Inflammatory gene expression (IL-6 and TNF-α), dose response: decreased inflammatory gene expression (IL-6 and TNF-α) in a dose response manner
HK-2 cells [2]; LPS 18 h, compound 100 μM
  QPRT expression: reversed LPS-induced reduction of QPRT expression
Kupffer cells [3]
  Secretion of pro inflammatory cytokines (IL-1β, IL-6, TNF-α): decreased
HK-2 cells [4]
  Fibrotic gene expression (Fibronectin and TIMP2): decreased fibrotic gene expression (Fibronectin and TIMP2) in a dose response manner
[5]
  Expression of pro-fibrotic and pro-inflammatory genes: decreased
[6]; day 4
  Cytokine secretion (hepatic inflammation): reducing
[6]
  Cytokine expression (hepatic inflammation): reducing
[7]
  Cisplatin-induced apoptosis (Caspases 3/7 activity): provides protection
